The results in this text go back to publication PMC7835950 (Frontiers in Chemistry, 2021).

Several values for one entry are separate records, joined by “and”; a condition that tells them apart may be missing. Equal entries are not always repeated. Where two headings read alike, the source gives them in different places.

One data set relates to OGDH and OADH. In words: Mechanism of inhibition of the OGDH and OADH reactions (effective Km and Amax vs inhibitor concentration). The format is biochemical, rat. The note with it: vs 2-oxo substrate; cardiac or hepatic preparations; inhibitor up to 200 μM. The protocol: (§1) The enzyme activities were assayed in the medium (pH 7.0) containing 50 mM MOPS, 1 mM ThDP, 1 mM MgCl2, 1 mM CaCl2, 1 mM dithiothreitol 0.15 mM Coenzyme A, 0.25 mM NAD^+ and various concentrations of 2-oxo substrates (0–10 mM OG or OA) and their phosphonate analogs (0–5,000 μM SP, GP, or AP). Reactions were started by addition of the enzyme preparations to the assay media. The amount of enzyme preparations (0.074 mg protein for the preparation from liver and 0.023 mg protein for the preparation from heart) were chosen to induce the lowest reliably measured reaction rate (ΔA340 = 0.001/min) at 0.01 mM OA without the phosphonates.
(§2) To determine the inhibition constants (Ki), the effective values of Kmeff and Amaxeff , calculated from the hyperbolic or linear approximations as described above, were plotted against the concentration of the inhibitors ([I]). The linear regression of the equation Kmeff/Amaxeff=Km/Amax(1+[I]/Ki) , (Cornish-Bowden, [1979]) was applied to find the Intercept (Km/Amax) and Slope (Km/(Amax*Ki)) of a dependence. The values of Ki were determined as the ratio of the corresponding Intercepts to the Slopes. In the two-site model, the Ki(1) and Ki(2) were calculated separately from the linear approximations of Km,1eff/Amax,1eff vs. [I] and Km,2eff/Amax,2eff vs. [I] dependences, respectively. The standard errors of Ki were determined from means and standard errors of the Intercepts and the Slopes, using the previously described formula for standard deviation of a fraction (Bunik et al., [1999]). The Ki values obtained from the non-linear and linear regression analyses of the experimental data were averaged and presented as Mean ± Standard Error of Mean.

The next data set deals with T1, OADH (Rattus norvegicus, UniProt Q4KLP0).
T1 sequence (Q4KLP0 45-920 limits assumed): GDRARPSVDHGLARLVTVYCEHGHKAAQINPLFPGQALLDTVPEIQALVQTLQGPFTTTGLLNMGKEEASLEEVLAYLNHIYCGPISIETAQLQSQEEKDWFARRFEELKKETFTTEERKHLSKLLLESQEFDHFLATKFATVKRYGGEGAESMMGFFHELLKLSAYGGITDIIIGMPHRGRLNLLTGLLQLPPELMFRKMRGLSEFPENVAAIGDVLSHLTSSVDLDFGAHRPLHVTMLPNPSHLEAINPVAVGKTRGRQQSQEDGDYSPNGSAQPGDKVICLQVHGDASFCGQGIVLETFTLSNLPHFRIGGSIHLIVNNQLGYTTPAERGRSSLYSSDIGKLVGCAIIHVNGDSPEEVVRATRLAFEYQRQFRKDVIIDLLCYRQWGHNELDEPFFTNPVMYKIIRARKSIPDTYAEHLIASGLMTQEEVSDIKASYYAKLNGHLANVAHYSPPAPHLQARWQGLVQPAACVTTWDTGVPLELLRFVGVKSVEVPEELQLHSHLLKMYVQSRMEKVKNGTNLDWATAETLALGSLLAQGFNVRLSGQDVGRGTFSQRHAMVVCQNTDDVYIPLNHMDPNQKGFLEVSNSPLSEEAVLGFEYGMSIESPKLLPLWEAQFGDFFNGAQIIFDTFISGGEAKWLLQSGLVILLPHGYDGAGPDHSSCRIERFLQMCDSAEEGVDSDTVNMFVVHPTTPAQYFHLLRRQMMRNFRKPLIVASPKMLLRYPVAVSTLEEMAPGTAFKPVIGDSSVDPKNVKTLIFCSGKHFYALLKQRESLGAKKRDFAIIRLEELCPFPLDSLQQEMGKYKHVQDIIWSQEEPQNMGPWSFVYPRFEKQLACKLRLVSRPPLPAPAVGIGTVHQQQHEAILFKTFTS
In words: OADH reaction catalyzed by the enzyme preparation from rat liver, low [OA] (high-affinity OA sites). The data set is classed as biochemical. The note with it: for Ki / Amax: OADH reaction, liver; for Amax: high-affinity sites. The method, then: Enzymes catalyzing OGDH and OADH reactions were enriched from rat hearts and livers using polyethylene glycol precipitation, as previously described (Artiukhov et al., [2020]).
as §1
Reaction rates were calculated from linear parts of the product accumulation curves (up to 10 min, dependent on the reaction rate), excluding the initial region, where mixing the reagents and solubilization of the preparation affected the optical density.
Non-linear regression was used to approximate the experimental dependences of the reaction rates on the OG or OA concentration according to the Michaelis-Menten equation ( a=Amax*[S]/Km+[S] ) or its sum ( a=Amax*[S]/Km+[S]+Amax,2*[S]/Km,2+[S] ). The former equation describes one type of the active sites. […] The assumption was based on the presence of the two enzymes, OGDH and OADH, in the employed preparations.
The kinetic data were also analyzed by linear regression, using the known methods of the linearization of the Michaelis-Menten equation in the Lineweaver-Burk ( 1/a=1/Amax(1+Km/[S]) ) and Eadie-Hofstee ( a=Amax−Kmv/[S] ) coordinates. Due to the several orders of magnitude difference in the values of Km,1 and Km,2, the linear regression required separate analysis of the dependencies in the intervals of the low and high concentrations of 2-oxoadipate. The Km and Amax values obtained in independent experiments using the non-linear and linear regression analyses of the experimental data, were averaged and presented as Mean ± Standard Error of Mean.
as §2

The nature of data set [1]: Stability of the phosphonates and their esters during storage, by NMR. As to conditions: trisodium salts. The format is physicochemical. The protocol:
Stability of the purified phosphonates and their esterified precursor was analyzed by NMR after storage under the inert (pure argon) or ambient (air) atmosphere and in water solutions. ^1H, ^13C and ^31P NMR spectra were recorded at 400, 100.6, and 161.9 MHz, respectively with a Bruker Avance 400 spectrometer. Chemical shifts were calculated using D2O or CDCl3 as reference standards for trisodium salts and triesters, respectively. The spectra of the phosphonates and their esters before and after storage are shown in Supplementary Figures 1, 2 correspondingly.

Setting [2] is: low [OA] 0–0.05 mM, Michaelis-Menten, read-out: Ki, MM.
[3] abbreviates: low [OA], Eadie-Hofstee, read-out: Ki, EH.
[4] abbreviates: low [OA], Lineweaver-Burk, read-out: Ki, LB.
The mark [5] stands for this setting: low [OA], average, read-out: Ki, Average.

For `O=C(O)CCCC(=O)P(=O)(O)O` [GP, glutaryl phosphonate], the “primary mechanism of inhibition” value in the data set with OGDH and OADH is recorded as “competitive inhibition”. In addition, the Ki (in general, the equilibrium dissociation constant of an inhibitor or competing ligand from its target) on OADH (setting [2]) amounted to 2.4 ± 0.3 µM; at OADH (setting [3]) it was 1.9 ± 0.3 µM; on OADH (setting [4]), 1.6 ± 0.2 µM; at OADH (setting [5]), 2 ± 0.2 µM. The Amax on OADH ([I] 2 µM) is listed as 0.0026 ± 0.0002 µmol/min per mg of protein; at OADH ([I] 10 µM) it was 0.0018 ± 0.0001 µmol/min per mg of protein; on OADH ([I] 50 µM) it was 0.0011 ± 0.00005 µmol/min per mg of protein; at OADH ([I] 200 µM) it was 0.0016 ± 0.0001 µmol/min per mg of protein; on OADH ([I] 1000 µM), 0.0013 ± 0.0001 µmol/min per mg of protein. Further, the “stability upon the shelf storage” value in data set [1] is reported as “high stability”.

On to `O=C(O)CCCC(=O)C(=O)O` [OA, 2-oxoadipate], for which the “difference in the affinities of the two types of the sites to OA” value at OADH (hepatic preparation, low- vs high-affinity sites) is reported as 60 fold.

`O=C(O)CCC(=O)P(=O)(O)O` [SP, succinyl phosphonate]: in the data set with OGDH and OADH, the “primary mechanism of inhibition” value was “competitive inhibition”. The Ki at OADH (setting [2]) came to 128 ± 9 µM; at OADH (setting [3]), 110 ± 7 µM; on OADH (setting [4]) it was 109 ± 9 µM; on OADH (setting [5]), 116 ± 6 µM. Further, the Amax is listed as 0.0017 ± 0.0001 µmol/min per mg of protein on OADH ([I] 10 µM); 0.0016 ± 0.0001 µmol/min per mg of protein at OADH ([I] 50 µM); 0.0016 ± 0.00005 µmol/min per mg of protein at OADH ([I] 200 µM); 0.0014 ± 0.0001 µmol/min per mg of protein at OADH ([I] 1000 µM); 0.0010 ± 0.00003 µmol/min per mg of protein at OADH ([I] 5000 µM). In addition, the “stability upon the shelf storage” value in data set [1] is “high stability”.

As to `O=C(O)CCCCC(=O)P(=O)(O)O` [AP, adipoyl phosphonate], the “primary mechanism of inhibition” value in the data set with OGDH and OADH is “competitive inhibition”. In addition, the Ki is 0.05 µM and 0.044 µM at OADH (setting [2]); 0.044 ± 0.111 µM on OADH (setting [3]); 0.056 ± 0.118 µM at OADH (setting [4]); 0.048 ± 0.004 µM on OADH (setting [5]). Further, the Amax at OADH ([I] 0.5 µM) is on record as 0.0014 ± 0.0001 µmol/min per mg of protein; at OADH ([I] 2 µM), 0.0056 ± 0.0022 µmol/min per mg of protein; at OADH ([I] 10 µM), 0.0088 ± 0.0041 µmol/min per mg of protein. Further, in data set [1], the “stability upon the shelf storage” value is recorded as “high stability”.
